Activity calls are given as the source filed them. Cut-off read from the data, not from the text of the source: actives have a measured EC50 and inactives only a lower limit.
biological target: T1, Heat shock factor protein 1 (Mus musculus, UniProt P38532); experiment: decrease of HSF1-responsive luciferase luminescence – cell-based, NIH3T3, dose retest, confirmation (AID 2382); assay type: functional; conditions: not given;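 note: NIH3T3 fibroblasts with HSF1-driven luciferase reporter stressed by proteasome inhibitor MG132; luminescence from HSF1-driven luciferase expression after 8 hours of MG132 stress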
T1 sequence (P38532 whole entry): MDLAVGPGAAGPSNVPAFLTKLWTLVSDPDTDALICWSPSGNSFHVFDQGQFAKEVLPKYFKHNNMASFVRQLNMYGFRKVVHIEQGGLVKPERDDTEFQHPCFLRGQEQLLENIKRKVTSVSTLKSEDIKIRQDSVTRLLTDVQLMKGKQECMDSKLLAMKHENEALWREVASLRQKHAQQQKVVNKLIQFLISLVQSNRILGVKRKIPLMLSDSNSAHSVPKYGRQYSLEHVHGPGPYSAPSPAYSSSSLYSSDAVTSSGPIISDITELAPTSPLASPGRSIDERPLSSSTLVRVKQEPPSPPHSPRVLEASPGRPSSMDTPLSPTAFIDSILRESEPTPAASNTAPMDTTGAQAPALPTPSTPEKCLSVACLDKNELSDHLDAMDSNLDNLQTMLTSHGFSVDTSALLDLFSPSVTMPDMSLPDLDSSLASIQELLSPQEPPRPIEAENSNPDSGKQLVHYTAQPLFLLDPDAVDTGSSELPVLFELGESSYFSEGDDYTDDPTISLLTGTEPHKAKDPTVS

Question: Which EC50 does the source give for `Cc1cc(C)c2c(n1)sc1c(O)nc(SCc3ccccc3)nc12` here?
Answer: > 195 µM (not active)

Question: For `O=C(CN1C(=O)NC(Cc2ccccc2)C1=O)Nc1ccc(OC(F)F)cc1` (centres undefined), which EC50 is on record?
Answer: > 195 µM (not active)

Question: Which EC50 does the source give for `COc1ccc(CCNCc2ccsc2)cc1OC` here?
Answer: > 195 µM (not active)

Question: With `Cc1onc(-c2ccccc2Cl)c1C(=O)Nc1ccc(OCC(=O)N2CCOCC2)cc1` as the compound, how does the EC50 read?
Answer: > 195 µM (not active)

Question: For `CN1CCN(S(=O)(=O)c2ccc(Oc3ccc(F)c(Cl)c3)nc2)CC1`, which EC50 is on record?
Answer: > 195 µM (not active)

Question: For `COCCn1c(N)c(Sc2ccccc2[N+](=O)[O-])c(=O)[nH]c1=O`, which EC50 is on record?
Answer: > 195 µM (not active)

Question: With `COc1ccc(/C(C)=N/NC(=O)CNC(=O)/C=C\c2ccccc2)c(OC)c1` as the compound, how does the EC50 read?
Answer: > 195 µM (not active)

biological target: T2, Streptokinase A (Streptococcus pyogenes serotype M1, UniProt P10520); experiment: viability-normalized secreted streptokinase activity reduction – plasminogen activation absorbance, OD405, dose response (AID 1914); assay type: functional, Streptococcus pyogenes M1 GAS; conditions: not given;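 note: secreted streptokinase activity via plasminogen activation per viability signal from cell pellet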
T2 sequence (P10520 whole entry): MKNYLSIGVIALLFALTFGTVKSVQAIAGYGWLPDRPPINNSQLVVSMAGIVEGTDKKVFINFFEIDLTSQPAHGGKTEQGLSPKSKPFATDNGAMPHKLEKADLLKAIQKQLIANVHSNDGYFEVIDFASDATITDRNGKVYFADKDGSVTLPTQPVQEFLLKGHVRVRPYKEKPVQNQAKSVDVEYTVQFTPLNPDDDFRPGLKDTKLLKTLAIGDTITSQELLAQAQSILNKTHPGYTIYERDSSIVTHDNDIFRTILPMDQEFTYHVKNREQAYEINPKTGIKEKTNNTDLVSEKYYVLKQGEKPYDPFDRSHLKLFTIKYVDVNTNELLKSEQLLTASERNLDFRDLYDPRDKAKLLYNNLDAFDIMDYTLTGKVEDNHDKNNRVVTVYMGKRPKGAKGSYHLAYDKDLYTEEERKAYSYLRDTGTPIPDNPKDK

Question: Which EC50 does the source give for `C=CCSc1nc(-c2ccccc2)c2cc(Cl)ccc2n1` here?
Answer: 29.4 µM (active)

Question: For `CCN(CC(=O)Nc1ccccc1C(F)(F)F)C(=O)c1cc(-c2ccccc2)nn1-c1ccccc1`, which EC50 is on record?
Answer: 23.9 µM (active)

Question: Which EC50 does the source give for `O=C(CSc1nnc(CNC(=O)c2ccc(F)cc2)o1)NCc1ccccc1` here?
Answer: > 150 µM (not active)

Question: For `CCn1c(SCC(=O)N2CC(C)OC(C)C2)nc2c3ccccc3nc-2c1O` (centres undefined), which EC50 is on record?
Answer: > 150 µM (not active)

Question: Which EC50 does the source give for `CCOC(=O)c1cccc(NC(=S)N2CCN(c3ncc4c(=O)c(C(=O)O)cn(CC)c4n3)CC2)c1` here?
Answer: > 150 µM (not active)

Question: With `CCN(c1ccc(OC)cc1)S(=O)(=O)c1nnc(NC(=O)c2ccccc2Cl)s1` as the compound, how does the EC50 read?
Answer: 5.58 µM (active)

Question: Which EC50 does the source give for `COc1ccc(C(=O)CSc2nnc(CNC(=O)c3ccc(S(=O)(=O)N(C)C)cc3)o2)cc1` here?
Answer: > 150 µM (not active)

Question: Which EC50 does the source give for `COc1ccc(-c2cc(C3CCN(c4ncccc4[N+](=O)[O-])CC3)[nH]n2)cc1` here?
Answer: > 150 µM (not active)

Question: For `Cc1ccc(Cn2c(=O)n(Cc3ccco3)c(=O)c3ccccc32)cc1`, which EC50 is on record?
Answer: > 150 µM (not active)

Question: For `COc1ccc(C2/C(=C(\O)c3ccccc3)C(C)=Nc3nc4ccccc4n32)c(OC)c1` (centres undefined), which EC50 is on record?
Answer: > 150 µM (not active)

tested on: Streptococcus; experiment: GAS UMAA2166 growth inhibition – luminescence, BacTiterGlo, counter-screen for streptokinase expression inhibitor project, dose response (AID 1915); assay type: functional, organism-based; conditions: not given;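 note: potency for reduction of bacterial viability or growth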

Question: For `C=CCSc1nc(-c2ccccc2)c2cc(Cl)ccc2n1`, which EC50 is on record?
Answer: 46.4 µM (active)

Question: With `CCN(CC(=O)Nc1ccccc1C(F)(F)F)C(=O)c1cc(-c2ccccc2)nn1-c1ccccc1` as the compound, how does the EC50 read?
Answer: > 150 µM (not active)

Question: Which EC50 does the source give for `O=C(CSc1nnc(CNC(=O)c2ccc(F)cc2)o1)NCc1ccccc1` here?
Answer: > 150 µM (not active)

Question: For `CCn1c(SCC(=O)N2CC(C)OC(C)C2)nc2c3ccccc3nc-2c1O` (centres undefined), which EC50 is on record?
Answer: > 150 µM (not active)

Question: With `CCOC(=O)c1cccc(NC(=S)N2CCN(c3ncc4c(=O)c(C(=O)O)cn(CC)c4n3)CC2)c1` as the compound, how does the EC50 read?
Answer: 29.9 µM (active)

Question: Which EC50 does the source give for `CCN(c1ccc(OC)cc1)S(=O)(=O)c1nnc(NC(=O)c2ccccc2Cl)s1` here?
Answer: 99.3 µM (active)

Question: With `COc1ccc(C(=O)CSc2nnc(CNC(=O)c3ccc(S(=O)(=O)N(C)C)cc3)o2)cc1` as the compound, how does the EC50 read?
Answer: > 150 µM (not active)

Question: Which EC50 does the source give for `COc1ccc(-c2cc(C3CCN(c4ncccc4[N+](=O)[O-])CC3)[nH]n2)cc1` here?
Answer: 13 µM (active)

Question: With `Cc1ccc(Cn2c(=O)n(Cc3ccco3)c(=O)c3ccccc32)cc1` as the compound, how does the EC50 read?
Answer: > 150 µM (not active)

Question: Which EC50 does the source give for `COc1ccc(C2/C(=C(\O)c3ccccc3)C(C)=Nc3nc4ccccc4n32)c(OC)c1` (centres undefined) here?
Answer: 37.3 µM (active)

tested on: H4; experiment: Luminescence Cell-Based Dose Response HTS to Identify Activators of 5'UTR Stem-Loop Driven Prion Protein mRNA Translation in H4 Neuroglioblastoma Cells. [Related pubchem assays: 1829 (Project Summary), 1814 (Primary HTS)]; assay type: functional; conditions: Homo sapiens

Question: Which EC50 does the source give for `Clc1ccc2[nH]c(-c3ccc(Cl)nc3)nc2c1` here?
Answer: > 120 µM (not active)

tested on: Streptococcus sp. 'group A'; experiment: Streptococcus pyogenes SK(-)GAS viability under kanamycin – luminescence, BacTiterGlo, confirmation, counter-screen for streptokinase expression inhibitor project, dose response (AID 1900); assay type: functional, organism-based; conditions: not given

Question: For `C=CCSc1nc(-c2ccccc2)c2cc(Cl)ccc2n1`, which EC50 is on record?
Answer: 15 µM (active)

Question: Which EC50 does the source give for `CCN(CC(=O)Nc1ccccc1C(F)(F)F)C(=O)c1cc(-c2ccccc2)nn1-c1ccccc1` here?
Answer: 19.9 µM (active)

Question: With `O=C(CSc1nnc(CNC(=O)c2ccc(F)cc2)o1)NCc1ccccc1` as the compound, how does the EC50 read?
Answer: > 150 µM (not active)

Question: For `CCn1c(SCC(=O)N2CC(C)OC(C)C2)nc2c3ccccc3nc-2c1O` (centres undefined), which EC50 is on record?
Answer: > 150 µM (not active)

Question: With `CCOC(=O)c1cccc(NC(=S)N2CCN(c3ncc4c(=O)c(C(=O)O)cn(CC)c4n3)CC2)c1` as the compound, how does the EC50 read?
Answer: 5.98 µM (active)

Question: For `CCN(c1ccc(OC)cc1)S(=O)(=O)c1nnc(NC(=O)c2ccccc2Cl)s1`, which EC50 is on record?
Answer: 9.51 µM (active)

Question: With `COc1ccc(C(=O)CSc2nnc(CNC(=O)c3ccc(S(=O)(=O)N(C)C)cc3)o2)cc1` as the compound, how does the EC50 read?
Answer: > 150 µM (not active)

Question: For `COc1ccc(-c2cc(C3CCN(c4ncccc4[N+](=O)[O-])CC3)[nH]n2)cc1`, which EC50 is on record?
Answer: 4.96 µM (active)

Question: Which EC50 does the source give for `Cc1ccc(Cn2c(=O)n(Cc3ccco3)c(=O)c3ccccc32)cc1` here?
Answer: 21.1 µM (active)

Question: Which EC50 does the source give for `COc1ccc(C2/C(=C(\O)c3ccccc3)C(C)=Nc3nc4ccccc4n32)c(OC)c1` (centres undefined) here?
Answer: 14.5 µM (active)

tested on: not listed separately; experiment: Luminescence Cell-Based Dose Response HTS to Identify Activators of Luciferase Translation or Activity in H4 […] Cells. [Related pubchem assays: 1829 (Project Summary), 1814 (Primary HTS)]; assay type: functional; conditions: not given

Question: With `Clc1ccc2[nH]c(-c3ccc(Cl)nc3)nc2c1` as the compound, how does the EC50 read?
Answer: 22.3 µM (active)

— ChEMBL document CHEMBL1201862, “PubChem BioAssay data set” (2004)
